Where “and” joins values, the source holds several entries; their conditions need not be identical. Equal values may be shown once. Calls of active or inactive are those of the source.
Columns and labels:
[1] = biological target: Heat shock protein HSP 90-alpha (Homo sapiens, UniProt P07900); format: functional, organism-based
[2] = Shn3 3'UTR reporter inhibitors, dose response, cell-based, Clone20 osteoblasts, firefly luciferase, cherry-picked (AID 624132); format: functional;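 further: firefly luciferase luminescence from reporter carrying the Shn3 3'UTR in osteoblasts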
[3] = HepG2 cell cytotoxicity, dose response, cytotoxicity control for Shn3 inhibitor project, CellTiter-Glo, cherry-picked (AID 624134); format: functional, cell-based
[4] = biological target: T1, Carboxy-terminal domain RNA polymerase II polypeptide A small phosphatase 1 (Homo sapiens, UniProt Q9GZU7); assay: inhibitors of CTDSP1, concentration-response testing, biochemical assay, absorbance-based, actives from ultra-high-throughput screening (AID 540297); format: functional
T1 sequence (Q9GZU7 whole entry): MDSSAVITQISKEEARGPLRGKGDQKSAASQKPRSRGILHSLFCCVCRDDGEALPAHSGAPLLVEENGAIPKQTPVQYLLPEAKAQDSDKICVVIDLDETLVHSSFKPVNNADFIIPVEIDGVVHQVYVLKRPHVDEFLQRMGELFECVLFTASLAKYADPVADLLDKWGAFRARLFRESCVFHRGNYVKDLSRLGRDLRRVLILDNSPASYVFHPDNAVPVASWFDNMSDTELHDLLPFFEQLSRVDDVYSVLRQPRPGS

[5] = P. falciparum Dd2 growth inhibitors, dose response, SYBR Green, cherry-picked samples (AID 1159567); format: functional, cell-based
[6] = biological target: T2, High affinity choline transporter 1 (Homo sapiens, UniProt Q9GZV3); assay: CHT inhibitors, dose response, cell-based, 5-point CRC, membrane potential dye (AID 504840); format: functional
T2 sequence (Q9GZV3 whole entry): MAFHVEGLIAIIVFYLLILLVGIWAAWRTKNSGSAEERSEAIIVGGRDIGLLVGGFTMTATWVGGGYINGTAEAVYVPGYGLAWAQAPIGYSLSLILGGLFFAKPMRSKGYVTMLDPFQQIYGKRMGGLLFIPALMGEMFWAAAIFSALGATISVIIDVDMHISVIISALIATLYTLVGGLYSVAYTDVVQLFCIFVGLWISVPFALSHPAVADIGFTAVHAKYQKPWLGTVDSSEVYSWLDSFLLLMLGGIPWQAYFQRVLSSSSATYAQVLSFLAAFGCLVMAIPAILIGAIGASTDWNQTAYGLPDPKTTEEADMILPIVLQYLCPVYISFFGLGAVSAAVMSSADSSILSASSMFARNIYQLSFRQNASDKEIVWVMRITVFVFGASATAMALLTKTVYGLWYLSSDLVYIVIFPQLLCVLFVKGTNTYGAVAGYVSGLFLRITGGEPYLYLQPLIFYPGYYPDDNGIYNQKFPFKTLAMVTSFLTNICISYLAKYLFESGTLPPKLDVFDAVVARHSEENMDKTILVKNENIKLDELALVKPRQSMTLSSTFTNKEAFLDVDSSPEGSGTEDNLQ

[7] = biological target: T3, Ubiquitin-conjugating enzyme E2 N (Homo sapiens, UniProt P61088); format: functional;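 further: Dose-response confirmation in a TR-FRET assay detecting UBC13-driven polyubiquitin chain formation, inhibition measured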
T3 sequence (P61088 whole entry): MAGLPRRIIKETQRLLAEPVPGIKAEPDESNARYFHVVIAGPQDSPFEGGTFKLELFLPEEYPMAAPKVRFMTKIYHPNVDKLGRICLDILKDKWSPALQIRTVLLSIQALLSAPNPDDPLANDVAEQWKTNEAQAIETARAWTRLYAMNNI

[8] = biological target: Cytochrome P450 3A4 (Homo sapiens, UniProt P08684); settings: Potency;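 further: confirmatory qHTS run detecting inhibitors and substrates of CYP3A4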
Sequence of Cytochrome P450 3A4 (P08684 whole entry): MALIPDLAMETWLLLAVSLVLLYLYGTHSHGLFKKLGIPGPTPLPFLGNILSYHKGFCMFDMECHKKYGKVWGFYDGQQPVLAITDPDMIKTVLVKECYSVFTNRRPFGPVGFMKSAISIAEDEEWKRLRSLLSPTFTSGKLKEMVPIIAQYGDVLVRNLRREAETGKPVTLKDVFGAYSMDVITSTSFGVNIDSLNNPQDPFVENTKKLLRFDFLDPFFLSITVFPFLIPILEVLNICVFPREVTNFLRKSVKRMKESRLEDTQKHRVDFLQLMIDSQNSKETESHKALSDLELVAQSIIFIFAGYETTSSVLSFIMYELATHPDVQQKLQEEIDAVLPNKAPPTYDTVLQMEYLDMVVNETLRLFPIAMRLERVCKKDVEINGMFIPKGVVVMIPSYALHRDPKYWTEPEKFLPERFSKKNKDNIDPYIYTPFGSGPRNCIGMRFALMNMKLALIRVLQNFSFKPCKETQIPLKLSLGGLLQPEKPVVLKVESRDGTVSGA

[9] = microbe, parasite or virus in culture; format: functional; settings: Mycobacterium tuberculosis
[10] = Luminescence Cell-Based Dose Retest to Confirm Inhibitors of Cancer Stem Cells. [Related pubchem assays (depositor defined):AID2717, AID2721]; format: functional; settings: Homo sapiens
[11] = tested on: INS1; assay: beta cell apoptosis inhibitors, cytokine rescue, dose response, luminescence, retest (AID 449756); format: functional, cell-based; settings: Rattus norvegicus;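 further: cell death triggered by IL-1 beta plus TNF-alpha plus IFN-gamma mixture; protective hits raise ATP signal compared with cytokine alone wells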
[12] = THP-1 cell cytotoxicity, dose response, cytotoxicity control for Vif-APOBEC3G degradation inhibitor project, THP-1 cells (AID 1117359); format: functional; settings: Human immunodeficiency virus 1, THP-1

Compound: CC(C)N1CCN(c2ccc(OCC3COC(Cn4cncn4)(c4ccc(Cl)cc4Cl)O3)cc2)CC1 (stereo not given) [TERCONAZOLE]
- AC50 [1]: 2.19 µM (active)
- AC50 [2]: 52.1 µM (active)
- AC50 [3]: 21.2 µM (active)

Compound: O=C(COc1ccc([N+](=O)[O-])cc1)Nc1ccc(C(=O)Nc2ccccc2C(=O)O)cc1
- IC50 [4]: 12.3 µM (active)

Compound: COc1ccc2c3c([nH]c2c1)[C@H](CO)N(Cc1ccccc1Cl)CC31CCN(C(C)=O)CC1
- AC50 [5]: 2.8 µM (active)

Compound: COc1ccc(OCC(=O)OCCN(C)C)cc1
- IC50 [6]: 14.5 µM (active)

Compound: O=C(c1nc2ccc(Cl)cn2c1CN1CCCC1)N1CCc2ccccc2C1
- IC50 [4]: 17.5 µM (active)

Compound: COc1ccc2c3c([nH]c2c1)[C@@H](CO)N(Cc1cc(F)ccc1F)CC31CCN(C(=O)C2CCC2)CC1
- AC50 [5]: 3.77 µM (active)

Compound: Cc1cccc(OCCCC(=O)NNC(=O)c2ccccn2)c1
- IC50 [7]: > 20 µM (inactive)

Compound: CCCNC[C@H]1[C@@H](c2ccc(C3=CCCCC3)cc2)[C@@H](CO)N1C(=O)C1CCC1
- AC50 [5]: 4.2 µM (active)

Compound: CCN(CC)CCNC(C(=O)Nc1cc(C(F)(F)F)ccc1Cl)c1ccccc1 (stereo not given)
- IC50 [4]: 9.32 µM (active)

Compound: COC(=O)C1=C(C)N(Cc2ccccc2)c2c(C(=O)OC)c(C(=O)OC)c(C(=O)OC)c(=O)n2C1c1ccccc1 (stereo not given)
- AC50 [8]: 5.01 µM (inconclusive) and 3.98 µM (inconclusive)

Compound: O=C1CC[C@@]23/C=C/C(=O)NCCCCNCCCNC(=O)/C=C/c4ccc(c2c4)OC3C1 (stereo not given in full)
- AC50 [8]: 39.8 µM (inconclusive)

Compound: Cc1ccc2nsnc2c1S(=O)(=O)N1CCN(CCc2ccccc2)CC1
- IC50 [6]: 11.8 µM (active)

Compound: O=C1COc2ccc(C(=O)COC(=O)/C=C/c3ccco3)cc2N1
- IC50 [4]: 13.4 µM (active)

Compound: Cc1nc(Nc2ccccc2)c2nc(-c3ccccc3)n(CCCN3CCCCC3C)c2n1 (stereo not given)
- AC50 [8]: 12.6 µM (inconclusive)

Compound: CCOC(=O)c1c(CN2CCCCC2)oc2ccc(O)cc12
- IC50 [7]: > 20 µM (inactive)

Compound: Clc1ccc(C(Cn2ccnc2)OCc2csc3c(Cl)cccc23)c(Cl)c1 (stereo not given) [SERTACONAZOLE NITRATE]
- CC50 [9]: 24.4 µM (active)
- AC50 [10]: 1.85 µM (active)
- AC50 [1]: 0.233 µM (active)
- AC50 [11]: 10 µM (active)

Compound: O=NN(O)c1ccccc1
- AC50 [8]: 31.6 µM (inconclusive)

Compound: CCCC(=O)Nc1ccc2c(c1)OC[C@H](C)N(Cc1ccc(-c3ccccn3)cc1)C[C@H](C)[C@H](OC)CN(C)C2=O
- AC50 [5]: 4.66 µM (active)

Compound: CCCCNc1nc(C)nc2c1nc(C)n2CCC
- AC50 [8]: 31.6 µM (inconclusive)

Compound: CC(SCc1ccccc1)C(=O)N/N=C/c1ccc(OCC(=O)NCc2ccco2)cc1 (stereo not given)
- IC50 [6]: 2 µM (active)

Compound: O=C(CCCCCCCCC(=O)N/N=C/c1ccco1)N/N=C/c1ccco1
- IC50 [4]: 11.5 µM (active)

Compound: O=C1C2C3C=CC(CNS(=O)(=O)c4ccccc4)(O3)C2C(=O)N1c1ccc(Cl)cc1 (stereo not given)
- AC50 [1]: 7.09 µM (active)

Compound: CCCCCCN(C(=O)CCCCCN1C(=O)NC(c2ccc(C(C)(C)C)cc2)C(C(=O)OCc2ccccc2)=C1C)C(C(=O)NCCCC)c1ccc(OCC(=O)OC)c(C(=O)OC)c1 (stereo not given)
- CC50 [12]: 13.2 µM (active)

Compound: CCCN(CCC)CCNC(=O)c1cc2c(=O)n(CC)c3ccccc3c2s1
- IC50 [7]: > 20 µM (inactive)

Compound: COc1ccc(C#Cc2ccc([C@H]3[C@H]4CN(C(=O)Nc5ccccc5)CCCCN4[C@H]3CO)cc2)cc1
- AC50 [5]: 4.8 µM (active)

Compound: CC(=O)OC1CC(OC(C)=O)[C@]2(C)C(CC(=O)[C@]3(C)C2CC[C@@]2(C)C(C(=O)O)OC(=O)C4OC423)C1(C)C (stereo not given in full)
- AC50 [8]: 39.8 µM (inconclusive)

Compound: Cc1cc2nc(C)c(Cl)c(O)n2n1
- IC50 [6]: 13.2 µM (active)

Compound: CCc1ccc(C(=O)Nc2cccnc2Oc2ccc(Cl)cc2)cc1
- CC50 [12]: 18.4 µM (active)

Compound: COc1ccc(-c2cc(C(=O)N(C)CC(=O)Nc3ccccc3Br)c3ccccc3n2)cc1OC
- CC50 [12]: > 40 µM (active)

Compound: CC(=O)OCC1=C(C(=O)O)N2C(=O)[C@@H](NC(=O)Cc3cccs3)[C@H]2SC1 [CEPHALOTHIN]
- IC50 [4]: 2.79 µM (active)
